Patent US6586216B2 (Purdue Research Foundation, priority 1997, dated 2003)
Several values for one entry are separate records, joined by “and”; a condition that tells them apart may be missing. Identical values can stand only once.

Experiments:
[1] = target: T1, Bacillus subtilis glutamine PRPP amidotransferase variant S283A (Bacillus subtilis, UniProt P00497, S294A); test: Inhibition of enzyme activity (glutamate formation) by nucleotides, mutant S283A; format: biochemical; conditions: for increase of concentration for 50% inhibition relative to wild type: ADP-GMP mixture
T1 construct: Enzymes of the B. subtilis class are synthesized with an NH2 terminal propeptide; made in house; host or cells: E. coli strain TX158 (purF), plasmid pBsF/S283A
T1 sequence (P00497 12-476 S294A): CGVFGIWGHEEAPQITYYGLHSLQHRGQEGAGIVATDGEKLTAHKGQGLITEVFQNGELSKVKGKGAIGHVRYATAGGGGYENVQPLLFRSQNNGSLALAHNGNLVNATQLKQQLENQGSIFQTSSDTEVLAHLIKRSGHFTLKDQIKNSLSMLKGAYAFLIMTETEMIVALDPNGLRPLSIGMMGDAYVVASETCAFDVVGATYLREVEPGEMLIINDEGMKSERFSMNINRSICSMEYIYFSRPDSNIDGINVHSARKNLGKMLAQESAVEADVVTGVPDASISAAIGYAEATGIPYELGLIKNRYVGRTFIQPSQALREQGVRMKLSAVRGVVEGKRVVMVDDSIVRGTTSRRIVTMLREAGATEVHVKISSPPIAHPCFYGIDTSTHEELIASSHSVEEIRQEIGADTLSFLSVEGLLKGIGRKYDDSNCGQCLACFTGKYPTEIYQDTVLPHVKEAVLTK
Description: (§1) Plasmid pGZ1 was used for production of the wild type enzyme. Plasmid pGZ1 contains a 1.6 kb EcoRI-HindIII purF^+ fragment (Makaroff, C. A., Zalkin, H., Switzer, R. L., and Vollmer, S. J. (1983) J. Biol. Chem. 258, pp. 10586-10593) inserted into the corresponding sites of pUC18. For construction of mutants, the EcoRI-HindIII purF^+ DNA was transferred to pUC118 to yield pBsF. Mutations were constructed by the method of Kunkel et al. (Kunkel, T. A., Roberts, J. D., and Zakour, R. A. (1987) Methods Enzymol. 154, pp. 367-382) using pBsF phagemid DNA. The resulting plasmids were named pBsF/S283A, pBsF/K305Q, pBsF/R307Q, and pBsF/S347A.
(§2) Enzyme activity was assayed by measuring the initial rate of formation of the product glutamate. […] Incubation was at 37° C. for 6 min. The reaction was linear with time for at least 20 min under these conditions of assay. Reactions were quenched in a boiling water bath for 2 min, and glutamate was determined by the glutamate dehydrogenase method. The control reaction mixture contained all the components except PRPP.
(§3) Inhibition by nucleotides was determined by the standard assay to which varied concentrations of nucleotide were added. Synergistic inhibition was determined by varying the concentration of one nucleotide in the presence of a fixed concentration of a second nucleotide. Relative activity (see FIG. 1) refers to the enzyme activity at a given concentration of the varied nucleotide relative to that in the absence of the varied nucleotide. I0.5 values were calculated from plots of relative activity versus varied nucleotide concentration.
(§4) Site directed mutagenesis was utilized to modify amino acids comprising the A site and C site domains of the glutamine PRPP amidotransferase. These modified forms of amidotransferase were analyzed to determine the impact of the mutations on end-product inhibition and enzymatic activity. Inhibition by nucleotides was determined as described in Example 1.

[2] = target: T2, wild type B. subtilis glutamine PRPP amidotransferase (Bacillus subtilis, UniProt P00497); test: Inhibition of enzyme activity by nucleotides (glutamate formation assay), wild type; format: biochemical; conditions: wild type; for Hill coefficient determined from inhibition data: PRPP present
T2 construct: Enzymes of the B. subtilis class are synthesized with an NH2 terminal propeptide and an Fe—S center; made in house; host or cells: E. coli strain TX158 (purF) with plasmid pGZ1
T2 sequence (P00497 12-476): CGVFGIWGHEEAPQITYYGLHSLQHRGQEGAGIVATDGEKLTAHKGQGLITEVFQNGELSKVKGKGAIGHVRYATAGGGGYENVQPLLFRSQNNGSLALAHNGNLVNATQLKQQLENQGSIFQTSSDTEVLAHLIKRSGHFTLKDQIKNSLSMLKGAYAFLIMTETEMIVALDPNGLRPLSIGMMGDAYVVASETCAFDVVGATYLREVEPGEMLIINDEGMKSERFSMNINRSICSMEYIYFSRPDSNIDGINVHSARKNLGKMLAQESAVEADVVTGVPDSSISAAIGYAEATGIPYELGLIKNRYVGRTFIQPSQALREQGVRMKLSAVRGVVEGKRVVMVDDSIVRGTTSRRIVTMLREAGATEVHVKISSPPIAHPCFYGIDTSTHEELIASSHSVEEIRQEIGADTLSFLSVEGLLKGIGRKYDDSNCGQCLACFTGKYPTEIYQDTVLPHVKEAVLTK
Procedure: (§5) Enzyme activity was assayed by measuring the initial rate of formation of the product glutamate. […] Incubation was at 37° C. for 6 min. […] Reactions were quenched in a boiling water bath for 2 min, and glutamate was determined by the glutamate dehydrogenase method.
as §3

[3] = target: T2, wild type B. subtilis glutamine PRPP amidotransferase; test: Nucleotide binding by equilibrium dialysis; conditions: for Kd: apparent Kd, half-saturation of A and C sites
Procedure: Nucleotide binding was determined by equilibrium dialysis using chambers of 150 μL that were separated by a 12000-14000 molecular weight dialysis membrane. […] In some experiments, the chambers with radioactive nucleotide also contained a fixed concentration of a second non-radioactive nucleotide. The other chamber contained 50 mM Tris-HCl (pH 7.5) and 50-200 μM enzyme, calculated as the subunit concentration, in a volume of 100 μL. Dialysis was carried out for 20 h at room temperature (˜22° C.) in a rotating apparatus. Samples of 80 μL were retrieved from each chamber and were counted for radioactivity. All experiments were performed in an anaerobic glovebox. […] Equilibrium binding data were fit to the Hill equation (Y=C [free ligand]^n/[…]+[free ligand]^n, where Y is the fractional saturation, C is the binding capacity, Kd is the dissociation constant, and n is the Hill coefficient) by nonlinear regression using Ultrafit software (Biosoft, Cambridge, UK).

[4] = target: T3, Bacillus subtilis glutamine PRPP amidotransferase variant S347A (Bacillus subtilis, UniProt P00497, S358A); test: biochemical; format: biochemical
T3 construct: Enzymes of the B. subtilis class are synthesized with an NH2 terminal propeptide; made in house; host or cells: E. coli strain TX158 (purF), plasmid pBsF/S347A
T3 sequence (P00497 12-476 S358A): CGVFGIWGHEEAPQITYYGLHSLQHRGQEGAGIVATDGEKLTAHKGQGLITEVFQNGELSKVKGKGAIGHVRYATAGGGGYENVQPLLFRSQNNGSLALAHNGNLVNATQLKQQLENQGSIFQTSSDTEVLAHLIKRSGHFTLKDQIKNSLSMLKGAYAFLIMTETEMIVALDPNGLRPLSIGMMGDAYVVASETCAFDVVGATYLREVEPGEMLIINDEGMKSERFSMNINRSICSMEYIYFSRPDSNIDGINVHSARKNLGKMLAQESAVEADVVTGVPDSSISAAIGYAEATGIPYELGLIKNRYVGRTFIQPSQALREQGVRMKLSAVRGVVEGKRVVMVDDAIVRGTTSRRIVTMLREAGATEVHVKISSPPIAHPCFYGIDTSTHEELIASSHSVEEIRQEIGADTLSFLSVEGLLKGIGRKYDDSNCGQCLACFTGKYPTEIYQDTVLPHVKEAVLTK
Description: as §1, §5, §3
These modified forms of amidotransferase were analyzed to determine the impact of the mutations on end-product inhibition and enzymatic activity. Inhibition by nucleotides was determined as described in Example 1.

[5] = target: T4, Bacillus subtilis glutamine PRPP amidotransferase variant R307Q (Bacillus subtilis, UniProt P00497, R318Q); test: Inhibition of enzyme activity (glutamate formation) by nucleotides, mutant R307Q; format: biochemical
T4 construct: Enzymes of the B. subtilis class are synthesized with an NH2 terminal propeptide; made in house; host or cells: E. coli strain TX158 (purF), plasmid pBsF/R307Q
T4 sequence (P00497 12-476 R318Q): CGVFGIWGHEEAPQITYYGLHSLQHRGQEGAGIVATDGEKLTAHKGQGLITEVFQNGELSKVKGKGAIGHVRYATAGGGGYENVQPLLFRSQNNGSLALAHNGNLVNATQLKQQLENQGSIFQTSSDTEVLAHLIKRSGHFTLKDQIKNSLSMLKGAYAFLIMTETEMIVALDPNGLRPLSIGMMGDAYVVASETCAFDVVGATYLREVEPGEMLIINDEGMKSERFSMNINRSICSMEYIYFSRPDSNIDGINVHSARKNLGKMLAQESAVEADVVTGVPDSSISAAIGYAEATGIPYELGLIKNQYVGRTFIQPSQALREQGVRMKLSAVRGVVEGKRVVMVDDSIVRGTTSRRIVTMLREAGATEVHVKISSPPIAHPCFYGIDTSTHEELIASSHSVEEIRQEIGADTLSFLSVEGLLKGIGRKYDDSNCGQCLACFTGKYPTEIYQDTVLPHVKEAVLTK
Description: as §1, §2, §3, §4

[6] = target: T5, Bacillus subtilis glutamine PRPP amidotransferase variant K305Q (Bacillus subtilis, UniProt P00497, K316Q); test: Inhibition of enzyme activity (glutamate formation) by nucleotides, mutant K305Q; format: biochemical
T5 construct: Enzymes of the B. subtilis class are synthesized with an NH2 terminal propeptide; made in house; host or cells: E. coli strain TX158 (purF), plasmid pBsF/K305Q
T5 sequence (P00497 12-476 K316Q): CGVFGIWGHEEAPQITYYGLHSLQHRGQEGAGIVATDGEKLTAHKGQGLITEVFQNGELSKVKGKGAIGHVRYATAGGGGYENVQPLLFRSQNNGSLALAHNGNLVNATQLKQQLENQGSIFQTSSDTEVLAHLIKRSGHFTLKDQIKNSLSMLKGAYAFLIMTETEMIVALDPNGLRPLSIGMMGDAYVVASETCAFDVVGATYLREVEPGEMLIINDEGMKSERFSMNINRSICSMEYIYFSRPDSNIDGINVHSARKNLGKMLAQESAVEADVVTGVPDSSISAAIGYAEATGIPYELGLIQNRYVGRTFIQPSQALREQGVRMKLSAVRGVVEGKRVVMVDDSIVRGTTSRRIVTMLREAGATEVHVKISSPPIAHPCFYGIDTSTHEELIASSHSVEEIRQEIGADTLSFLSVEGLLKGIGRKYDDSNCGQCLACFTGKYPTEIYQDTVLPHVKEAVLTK
Description: as §1, §2, §3, §4

[7] = I0.5, no fixed nucleotide, 2.5 mM PRPP, pH 8.0, 37° C.
[8] = no fixed nucleotide, at saturation ± standard error
[9] = I0.5, fixed GMP 1.4 mM (footnote c)
[10] = I0.5, fixed ADP 0.8 mM (footnote c)

`Nc1ncnc2c1ncn2[C@@H]1O[C@H](COP(=O)(O)OP(=O)(O)O)[C@@H](O)[C@H]1O` [ADP] was tested, and the “increase of concentration for 50% inhibition relative to wild type” value [1] was 30 fold, the IC50 ([1]; I0.5, fixed GMP 0.50 mM) was 4800 µM and the IC50 [1, 7] was 24000 µM. For the same compound, the “syn. (decreased I0.5 due to a second nucleotide)” value ([1]; fixed GMP 0.50 mM) was 5.0 fold, the “I0.5 increase relative to wild type” value ([1]; no fixed nucleotide) was 5-7 fold and the “decreased inhibition relative to wild type” value ([1]; no fixed nucleotide) was 5-7 fold. The “Hill coefficient determined from inhibition data” value [2] was 3.8, the syn. ([2]; fixed AMP 0.1 mM) was 1.9 and the “syn. (decreased I0.5 due to a second nucleotide)” value ([2]; fixed GMP 0.25 mM) was 20. For the same compound, the syn. ([2]; fixed GMP 0.50 mM) was 29.0, the syn. ([2]; fixed GMP 1.0 mM) was 59 and the syn. ([2]; fixed GMP 2.0 mM) was 118.0. For the same compound, the syn. ([2]; fixed GMP 4.0 mM) was 188.0, the “concentration required for 50% inhibition relative to that of AMP” value ([2]; single nucleotide) was 5 fold and the “synergistic binding (decrease of Kd by second nucleotide)” value ([3]; ADP-GMP pair) was 20 fold. The equiv bound ([3]; GMP fixed at either 0.25 or 1.0 mM) was “approximately 1 equiv”, the Capacity ([3]; fixed GMP 0.25 mM) was 0.82 ± 0.11 equivalents bound per subunit and the Hill coefficient ([3]; fixed GMP 0.25 mM) was 1.8 ± 0.8. The Capacity ([3]; fixed GMP 1.0 mM) was 0.94 ± 0.14 equivalents bound per subunit, the Hill coefficient ([3]; fixed GMP 1.0 mM) was 1.7 ± 0.9 and the Capacity [3, 8] was 1.83 equivalents bound per subunit and 1.83 ± 0.26 equivalents bound per subunit. The Hill coefficient ([3]; no fixed nucleotide, binding) was 1.8 and 1.8 ± 0.65, the IC50 [4, 9] was 220 µM and the IC50 [4, 7] was 8100 µM. The “syn. (decreased I0.5 due to a second nucleotide)” value ([4]; fixed GMP 1.4 mM (footnote c)) was 37.0 fold, the IC50 ([5]; I0.5, fixed GMP 0.50 mM) was 2400 µM and the IC50 ([5]; I0.5, fixed GMP 5.0 mM) was 180 µM. For the same compound, the IC50 [5, 7] was 28000 µM, the “syn. (decreased I0.5 due to a second nucleotide)” value ([5]; fixed GMP 0.50 mM) was 12.0 fold and the “syn. (decreased I0.5 due to a second nucleotide)” value ([5]; fixed GMP 5.0 mM) was 156.0 fold. It also gave an IC50 ([6]; I0.5, fixed GMP 0.50 mM) of 12000 µM, an IC50 ([6]; I0.5, fixed GMP 5.0 mM) of 320 µM and an IC50 [6, 7] of 31000 µM. The “syn. (decreased I0.5 due to a second nucleotide)” value ([6]; fixed GMP 0.50 mM) was 2.6 fold and the “syn. (decreased I0.5 due to a second nucleotide)” value ([6]; fixed GMP 5.0 mM) was 97.0 fold.

`Nc1nc2c(ncn2[C@@H]2O[C@H](COP(=O)(O)O)[C@@H](O)[C@H]2O)c(=O)[nH]1` [GMP] was tested, and the “increase of concentration for 50% inhibition relative to wild type” value [1] was 13 fold, the IC50 ([1]; I0.5, fixed ADP 0.5 mM) was 2000 µM and the IC50 ([1]; I0.5, fixed ADP 2.5 mM) was 1700 µM. The IC50 [1, 7] was 6600 µM, the “syn. (decreased I0.5 due to a second nucleotide)” value ([1]; fixed ADP 0.5 mM) was 3.3 fold and the “syn. (decreased I0.5 due to a second nucleotide)” value ([1]; fixed ADP 2.5 mM) was 3.9 fold. For the same compound, the “inhibition compared with wild type” value ([1]; no fixed nucleotide) was “similar”, the syn. ([2]; fixed ADP 0.5 mM) was 63 and the syn. ([2]; fixed AMP 0.1 mM) was 0.95. For the same compound, the “concentration required for 50% inhibition relative to that of ADP” value ([2]; single nucleotide) was 2 fold, the “concentration required for 50% inhibition relative to that of AMP” value ([2]; single nucleotide) was 10 fold and the “increased C site binding affinity relative to IMP and AMP” value ([3]; ADP bound to the A site) was 3 fold. For the same compound, the Capacity ([3]; fixed ADP 0.5 mM) was 1 equivalents bound per subunit and 0.98 ± 0.10 equivalents bound per subunit, the Hill coefficient ([3]; fixed ADP 0.5 mM) was 2.1 ± 1.0 and the “Kd of GMP for the free enzyme, estimated assuming 20-fold synergism” value ([3]; no fixed nucleotide) was “approximately 500 μM”. For the same compound, the Kd ([3]; no fixed nucleotide) was “too weak to detect”, the IC50 [4, 10] was 440 µM and the IC50 [4, 7] was 14000 µM. For the same compound, the “syn. (decreased I0.5 due to a second nucleotide)” value ([4]; fixed ADP 0.8 mM (footnote c)) was 33.0 fold, the “I0.5 increase relative to wild type” value ([4]; inhibition at the C site) was 3 fold and the IC50 ([5]; I0.5, fixed ADP 0.5 mM) was 3300 µM. The IC50 ([5]; I0.5, fixed ADP 2.5 mM) was 760 µM, the IC50 [5, 7] was 50000 µM and the “syn. (decreased I0.5 due to a second nucleotide)” value ([5]; fixed ADP 0.5 mM) was 15.0 fold. The “syn. (decreased I0.5 due to a second nucleotide)” value ([5]; fixed ADP 2.5 mM) was 66.0 fold, the IC50 ([6]; I0.5, fixed ADP 0.5 mM) was 6000 µM and the IC50 ([6]; I0.5, fixed ADP 2.5 mM) was 1300 µM. For the same compound, the IC50 [6, 7] was 50000 µM, the “syn. (decreased I0.5 due to a second nucleotide)” value ([6]; fixed ADP 0.5 mM) was 8.3 fold and the “syn. (decreased I0.5 due to a second nucleotide)” value ([6]; fixed ADP 2.5 mM) was 38.0 fold.

For `Nc1ncnc2c1ncn2[C@@H]1O[C@H](COP(=O)(O)O)[C@@H](O)[C@H]1O` [AMP], the IC50 [1, 7] was 6100 µM, the “I0.5 increase relative to wild type” value ([1]; no fixed nucleotide) was 5-7 fold and the “decreased inhibition relative to wild type” value ([1]; no fixed nucleotide) was 5-7 fold. For the same compound, the “Hill coefficient determined from inhibition data” value [2] was 3.3-3.8, the syn. ([2]; fixed ADP 0.5 mM) was 1.4 and the syn. ([2]; fixed GMP 1.0 mM) was 1.0. For the same compound, the Kd ([3]; Kd, no fixed nucleotide) was 214 µM and > 500 µM, the “increase in binding affinity by second nucleotide” value ([3]; by GMP or ADP) was 2-3 fold and the Hill coefficient ([3]; fixed ADP 0.25 mM) was 2.3 ± 1.2. The Capacity ([3]; fixed ADP 0.5 mM) was “approximately 0.4 equivalents bound per subunit”, the Hill coefficient ([3]; fixed GMP 1.0 mM) was 2.1 ± 0.80 and the Capacity [3, 8] was 1.57 equivalents bound per subunit and 1.57 ± 0.27 equivalents bound per subunit. The Hill coefficient ([3]; no fixed nucleotide, binding) was 3.4 and 3.4 ± 1.8, the IC50 [4, 10] was 650 µM and the IC50 [4, 9] was 1800 µM. The IC50 [4, 7] was 1500 µM, the “syn. (decreased I0.5 due to a second nucleotide)” value ([4]; fixed ADP 0.8 mM (footnote c)) was 2.3 fold and the “syn. (decreased I0.5 due to a second nucleotide)” value ([4]; fixed GMP 1.4 mM (footnote c)) was 0.8 fold. The IC50 [5, 7] was 2600 µM and the IC50 [6, 7] was 2500 µM.
